Experiments:
[1] = tested on: SH-SY5Y cells; assay: MTT cytotoxicity assay in neuroblastoma SH-SY5Y cells; assay type: cell-based; settings: 1, 10 and 20 μM, 24 h
Method: The impact of Pegasus (D9) on cellular viability was studied in SH-SY5Y neuroblastoma cell lines using the colorimetric Thiazolyl Blue Tetrazolium […] (MTT) metabolic activity assay (Mosmann T. Rapid colorimetric assay for cellular growth and survival: application to proliferation and cytotoxicity assays. J Immunol Methods 1983; 65(1-2): 55-63), which reports viable cell number based on mitochondrial activity.
SH-SY5Y cells were seeded in 96-well plates at 15,000 cells/well with 100 μl of DMEM supplemented with 10% Fetal Bovine Serum (FBS) and 1% Antibiotics/Antimycotics, and incubated for 24 h at 37° C. and 5% CO2. Afterwards, cells were treated with a 25 μl aliquot of a D9 solution 5 μM, 50 μM or 100 μM (final concentration in well 1 μM, 10 μM and 20 μM, respectively) and incubated for 24 h. To determine cell viability, the MTT assay was used as previously described by Mosmann (1983). All experiments were performed in sextuplicate, and the relative cell viability (%) was expressed as a percentage relative to the untreated control condition.

[2] = tested on: Bv2 cells; assay: MTT cytotoxicity assay in microglial Bv2 cell line; assay type: cell-based, murine; settings: 10 and 20 μM, 24 h
Method: The ability of D9 to induce cytotoxicity was also studied using the MTT assay on Bv2 cells, a microglial cell line derived from the C57/BL6 murine model. For this, Bv2 cells were incubated in the presence and in the absence of different Pegasus concentrations at 37° C. Bv2 cells retain the morphology and functional characteristics of microglia and are therefore a widespread microglial model. These cells are immortalized by v-raf/v-myc carrying J2 retrovirus, and express nuclear v-myc and the cytoplasmic v-raf oncogene products as well as the env gp70 antigen at the surface level.
Bv2 cells were seeded in Poly-L-Lysine-treated 96-well plates at 15,000 cells/well and in 100 μl of DMEM supplemented with 10% Fetal Bovine Serum (FBS) and 1% Antibiotics/Antimycotics (PSA) and incubated for 24 h at 37° C. and 5% CO2. Afterwards, cells were treated with a 25 μl aliquot of a 50 µM and 100 μM Pegasus solution (final concentration in well 10 μM and 20 μM) and incubated for 24 h. To determine cell viability, the colorimetric MTT metabolic activity assay was used as previously described by Mosmann. All experiments were performed in sextuplicate, and the relative cell viability (%) was expressed as a percentage relative to the untreated control condition.

[3] = tested on: E. coli DH5α; assay: Antibiotic activity by disc diffusion assay (MIC); assay type: cell-based; settings: disc diffusion, two-fold serial dilutions from 2 mg/ml, LB solid medium, overnight 37° C.
Method: In order to examine the antibiotic activity of the compounds synthesized in Example 1, an assay was performed using E. coli DH5α (Gram(−)), as a sensitive, indicator strain.
The antibacterial activities of test compounds were evaluated using the disc diffusion method (Kavanagh, F. Dilution methods of antibiotic assays in Analytical Microbiology. 1963; Pomares M F, Vincent P A, Farías R N, Salomón R A. Protective action of ppGpp in microcin J25-sensitive strains. J Bacteriol. 2008-190:4328-34). Briefly, filter-paper discs impregnated with 10 μl of two-fold serial dilutions of the test compounds, and were placed onto LB solid medium Petri dishes. Then, aliquots (50 μl) of an E. coli DH5α culture in stationary phase were mixed with 3 ml of top agar (0.7% agar) and overlaid onto the plates. After overnight incubation at 37° C., the plates were examined for different degrees of inhibition. Inhibition degrees produced by the test compound are expressed as Minimum Inhibitory Concentrations (MICs), defined as the lowest concentration of a compound that inhibit visible growth of bacteria. Each test was performed in duplicate vs. the reference compound Doxycycline.

[4] = tested on: SH-SY5Y cells; assay: Lysosome localization and number, LysoTracker Deep Red confocal microscopy; assay type: cell-based; settings: 200 μM, 24 hs
From the text: Lysosomes are the final destination of the autophagic pathway. LysoTracker™ fluorescent probes, dyes that preferentially accumulate in vesicles with acidic pH, are widely used for tracing lysosomes in living and fixed cells in order to study organelle localization, their resident proteins, assess organelle functionality, quantify lysosome numbers and abnormalities in vesicular pH (Eskelinen E L, Schmidt C K, Neu S, et al. Disturbed cholesterol traffic but normal proteolytic function in LAMP-1/LAMP-2 double-deficient fibroblasts. Mol Biol Cell 2004; 15(7): 3132-45), and to examine the efficiency of autophagosome/lysosome fusion in live cells (González-Polo R A, Boya P, Pauleau A L, et al. The apoptosis/autophagy paradox: autophagic vacuolization before apoptotic death. J Cell Sci 2005; 118 (Pt 14): 3091-102.).
The effect of Pegasus on lysosomal activity in SH-SY5Y cells was estimated by visualizing the localization and number of lysosomes, marked by LysoTracker™ Deep Red (ThermoFisher #L12492), after treatment with 200 μM of Pegasus for 24 hs. After incubation, cells were fixed in PFA 4% prepared for confocal microscopy. Images were acquired in a ZEISS LSM800 confocal microscope.

[5] = tested on: SH-SY5Y cells; assay: CellROX assay of intracellular reactive oxygen species induced by ASf; assay type: cell-based; settings: 24 h
Method: In order to characterize the antioxidant properties of D9, its protective action on the AS-induced production of reactive oxygen species (ROS) in a cellular model was assessed. For this, SH-SY5Y cells were treated with fibrils of AS (ASf) (AS incubated 120 h at 37° C. and 600 rpm), and the reactive oxygen species produced were examined using the CellROX® Orange Reagent (Invitrogen), which undergoes oxidation by ROS to form a stable fluorescent compound.
In addition, cells were also treated with doxycycline 10 μM+7 μM ASf (ASf+Doxy) as a positive control, and 10 μM doxycycline alone (Doxy). All conditions were incubated 24 h at 37° C. and 5% CO2. […] Fluorescent images of randomly chosen fields were acquired with identical acquisition parameters using a Zeiss Axio Vert.A1 inverted fluorescence microscope.

SMILES: C[C@H]1c2ccc(NC(=O)CCC(=O)NCCc3ccc(O)c(O)c3)c(O)c2C(=O)C2=C(O)[C@]3(O)C(=O)C(C(N)=O)=C(O)CC3[C@@H](O)C21 (stereo partly drawn) [Pegasus]
- Cytotoxicity (relative cell viability, MTT) [1]: no cytotoxic effect
- Cytotoxicity (relative cell viability, MTT) [2]: did not induce cell toxicity
- MIC [3]: no antibiotic activity at the concentrations tested
- Localization and number of lysosomes (lysosome biogenesis) [4]: does not interfere with the biogenesis of lysosomes
- Intracellular ROS induced by ASf in presence of compound ([5]; 7 μM ASf + 10 μM compound): no increase in ROS production was observed
- Intracellular ROS induced by compound alone ([5]; human, 10 μM): neither the presence of D9 nor doxycycline induced intracellular ROS

Source: US12636371B2, “Chemically coupled transporter for low-hydrophobicity bioactive drugs into the central nervous system” (Skybio LLC, priority 2021, dated 2026)
